{"source": "patent US20140273210A1", "about": "“HIGH […] […] FOR CELL CULTURES AND APPLICATIONS THEREOF” (Board Of Regents, The University Of Texas System, priority 2013, published 2014)", "tested_on": "vascular smooth muscle cells", "test": "LDH release cytotoxicity assay with or without cyclic mechanical strain", "conditions": "10 nM mithramycin, 24 hours", "protocol": "A colorimetric cytotoxicity assay was used assess the presence of cell death during mechanical loading/drug treatment (Promega). This assay measures release of lactate dehydrogenase (LDH) activity and was used according to the manufactures directions. Mechanical stretch to cells in culture using the various waveforms were applied to cell culture. To confirm the biocompatibility of the cells in the system, cell death was measured through an LDH release assay. The maximal strain of 5% was set to be identical between the groups. After 4 hours of mechanical loading the cytotoxicity of the mechanical load was used using a LDH release assay.\nToxicity testing in the presence of mechanical load. Toxicity of chemotherapeutic drug mithramycin is tested in the presence or absence of mechanical strain. Specifically, cyclic mechanical load of 5% maximal strain was applied to vascular smooth muscle cells in the presence or absence of 10 nM mithramycin for 24 hours. Experiments of vascular smooth muscle cells in the presence or absence of 10 nM mithramycin without mechanical strains were also performed for comparison during the same time period. Release of lactate dehydrogenase (LDH) was measured as indication of cell death and the results were plotted in FIG. 11."}
{"substance": "mithramycin", "values": [{"measurement": "Release of lactate dehydrogenase (LDH) compared to control cells", "setting": "absence of mechanical strain", "value": "about the same"}, {"measurement": "Increase in LDH release from the cells compared to the control", "setting": "cyclic mechanical load of 5% maximal strain", "value": "four folds increase"}]}
